“And” between values parts separate entries of the source, which are not always exact repeats. Equal values may be shown once.
Experiments:
[1] = test system: basal induced angiogenesis; test: In vivo chamber implant angiogenesis assay, base line (no GF stimulation, PBS control chamber); design: species or system FVB mice
Description: Porous perfluoro-alkoxy-Teflon® chambers containing PBS in 0.5 ml of 0.8% w/v agar (containing heparin, 20 U/mL) were implanted subcutaneously in the flank of FVB mice. Animals were treated orally either with Compound A at 50 mg/kg once a day or vehicle (5 ml/kg) starting 4-6 hours before implantation of the chambers and daily for 3 days. Basal tissue formed around the chamber was carefully removed and the weight and Tie-2 levels were quantified. Animals were sacrificed 4 days after the implantation. Values are mean±SEM. *p<0.05, statistical significance of inhibition. The total number of animals per group is given in brackets.
(§1) Sterile tissue chambers made of perfluoro-alkoxy-Teflon® were filled with 500 μl molten 0.8% w/v agar containing 20 U/mL heparin (Novo Nordisk A/S, Bagsvaerd, Denmark) with or without growth factor (dog VEGF 2 μg/mL or phosphate buffer saline (PBS/O)). The chamber was implanted aseptically under isoflurane anesthesia through a small incision on the back of the animal and the incision was closed by wound clips. Animals were treated orally either with Compound A at 12.5, 25 or 50 mg/kg once a day formulated in a vehicle of NMP/PEG300 (10/90, V/V) or vehicle alone starting 4-6 hours before implantation of the chambers and daily for three days. VEGF induces the growth of vascularized tissue around the chamber. The angiogenic response can be quantified by measuring the weight and Tie-2 levels of the tissue.
(§2) Four days after implantation, animals were sacrificed using CO2. The chambers were recovered from the animal and the vascularized tissue that had formed around each implant was carefully removed and weighed. Tissue samples were homogenized for 30 sec at 24000 rpm (Ultra Turrax T25) after addition of 1 mL of Ripa buffer (Tris-HCl 50 mM, NaCl 120 mM, EDTA 1 mM, EGTA 6 mM, NP-40 1%, Sodium fluoride 20 mM, Pefabloc SC 1 mM, Sodium vanadate 1 mM). The samples were then centrifuged for 1 h at 7000 rpm. The supernatant was filtered using a 0.45 μm syringe filter (Acrodisc® GF, Gelman Sciences, Ann Arbor, Mich., USA) to avoid fat contamination.
Tie-2 is a receptor tyrosine kinase which is specifically expressed on endothelial cells. For Tie-2 level determination, Nunc (Naperville, Ill.) Maxisorp 96-well plates were coated over night at 4° C. with the capture antibody, anti-Tie-2 AB33 (UBI, Hauppauge, N.Y.), with a concentration of 2 μg/mL (100 μL/well). Wells were washed in TPBS (Tween 80 PBS) and blocked by incubating with 3% Top-Block (Juro, Lucerne, Switzerland) for 2 hours at room temperature. […] Tie-2 antibody complexes were detected after incubation with p-nitrophenyl phosphate substrate (Sigma). The absorbance of the spectro-photometric reaction was determined with an ELISA reader at 405 nm. […]
Four days after the subcutaneous implantation of the VEGF containing chambers, VEGF induced the formation of a thick layer of neovascularised tissue (called capsule) that grew around the implant. […] Tissue formation can be quantified by measuring the weight and the angiogenic response can be quantified by measuring the Tie-2 levels of the capsule. An ELISA assay can quantitatively measure endothelial cells in tissue extracts to evaluate the vascularization of the tissue. […]

[2] = test system: VEGF-induced vessel leakage; test: In vivo VEGF induced permeability assay (Miles assay); design: species or system FVB mice; details: 3, 6.25, 12.5 and 25 mg/kg p.o., 5 hours before VEGF injection in the ear
Description: FIG. 3: Effects of Compound A on VEGF induced permeability in vivo. FVB mice pre-treated with Compound A (3, 6.25, 12.5 and 25 mg/kg, p.o., for 5 h) were injected i.v. with Evans blue and challenged 30 minutes later with VEGF injection in the ear. Mice were then sacrificed and VEGF-mediated vessel leakage is quantified by measurement of the area (mm^2) of dye that extravasated at the site of VEGF injection using pixel-based threshold in computer-assisted image analysis software. Values are mean±SEM. *p<0.05, statistical significance of inhibition. The total number of animals per group is given in brackets.
200 μl of Evans blue (0.5%) was injected into the tail vein of female FVB mice. Thirty minutes following administration of the dye, the mice were anaesthesized (3% Isoflurane in O2, Forene®, Abbott AG, Cham, Switzerland) and then placed on an operating field maintained at a temperature of 39° C. Their ears were extended over a steel cone fitted with a double-sided sticker to expose the dorsal surface. […] VEGF-mediated vessel leakage is quantified by measurement of the area (mm^2) of dye that extravasated at the site of VEGF injection using pixel-based threshold in a computer-assisted image analysis software (KS-400 3.0 imaging system, Zeiss, Germany). […]

BN472 tumors [3] = test: Tumor interstitial fluid pressure (IFP) by radio-telemetry; assay type: in vivo, Brown-Norway (BN) rats
Description: FIG. 4: Effects of Compound A on tumor interstitial fluid pressure. (A) Orthotopic BN472 tumor bearing rats containing a pressure sensing catheter inserted in the tumor were treated with Compound A at 25 mg/kg (n=6; initial IFP: 25.4 mmHg±2.8), or with the vehicle control (n=9; 18.2 mmHg±1.5) for 3 consecutive days. The IFP was recorded for 72 h and variations (delta towards initial values) plotted (gray lines: untreated animals; dark line: applied treatment as indicated in the graph). Data presented are means±SEM. (B) Same as in A except that additional animals were treated orally with a lower dose of 12.5 mg/kg Compound A (n=3; initial IFP: 18.8 mmHg±2.3; gray line). Recording was extended for 3 additional days post last treatment to assess recovery patterns. The arrows represent the administration schedule. Gray bars represent night time.
The IFP of BN472 tumors was measured in conscious, freely moving rats maintained in their home cage using an adapted fully implantable miniaturized radio-telemetry system (Data Sciences Int., St. Paul, Minn.) composed of 4 basic components: an implantable transmitter (AM unit, model TLM-PAC10, volume: 1.1 cc, weight: 1.4 g) which continuously senses and transmits information from within the animal, one receiver located under the home cage, a matrix interface for coordination of signals and a computer-based data acquisition system for collection, analysis and storage of data. The body of the transmitter was implanted s.c. under aseptic conditions into the flank of the animal under isofluorane anaesthesia (3% Isoflurane in O2). Briefly, once animals are fully unconscious, they are placed on a heated blanket and the abdominal area is shaved. The ventral surface of the abdomen is then prepared by swabbing the skin with povidone iodine surgical scrub. With the animal supine, a skin incision of approximately 30 mm is made along the midline of the abdomen and the skin separated from the muscle wall building an air pocket. The sterile transmitter is then positioned in this pocket and the sensing catheter tunneled subcutaneously towards the tumor site (lowest mammary fat pad). The sensing pressure catheter was inserted into the body of the tumor (4-5 mm depth) and secured at the site of entry with tissue adhesive (Vetbond; 3M Company). Fluid communication between the tip of the pressure catheter and the tumor was tested by gentle compressing and decompressing the tubing connected to the telemetry transducer using a clamp. […] However, in most of the implanted tumors, intra-tumoral IFP pulse pressure waveform curves could be recorded unstintingly with high resolution confirming even more strongly the adequate sensing catheter placement. The total operation time for the implantation of the telemetry transmitter was about 20 min. Postoperative analgesia was provided using Buprenorphin (Temgesic®, Reckitt and Colman) injection of 0.05 mg/kg s.c. twice, immediately after surgery and 8-12 h later. Following surgery, the unconscious animal is placed on soft material in a clean cage with water ad libitum. An external heat lamp is used to maintain body temperature. The animals were allowed a period of 2 days to recover from surgery before starting acquisition of any physiological data. IFP was recorded continuously in all animals over 24 hours up to 5 days, and analyzed in 1-min cyclic runs for 10 sec, with a 500-Hz sampling rate. Values presented are means over 15 min periods.

BN472 tumors [4] = test: Efficacy experiment with orthotopic BN472 rat mammary carcinoma model; details: qd, p.o.; for T/C (%): 0.5% Methylcellulose suspension
Description: BN472 tumors were established by orthotopic implantation of tumor fragments into the mammary fat pad of BN rats. Female Brown-Norway (BN) rats (obtained from Charles River (France)) weighing 160-180 g (6-7 weeks of age) were used for all experiments. They were identified by tail markings and kept in groups of 3-5 animals under normal conditions with access to food and water ad libitum. Tumor fragments of 25 mm^3 were taken from the cortex region and were transplanted orthotopically under the fat pad of the fourth left mammary gland of the recipients. For efficacy experiments, treatments were always initiated when the mean tumor volume in each group reached 400-500 mm^3.

[5] = test system: angiogenic response induced by VEGF; test: In vivo chamber implant angiogenesis assay, VEGF-stimulated; design: species or system FVB mice
Description: Porous perfluoro-alkoxy-Teflon® chambers containing PBS or VEGF (2 μg/mL) in 0.5 ml of 0.8% w/v agar (containing heparin, 20 U/mL) were implanted subcutaneously in the flank of FVB mice. Animals were treated orally either with Compound A at 12.5, 25 and 50 mg/kg once a day or vehicle (5 ml/kg) starting 4-6 hours before implantation of the chambers and daily for 3 days. VEGF induces the growth of vascularized tissue around the chamber. The angiogenic response can be quantified by measuring the weight and Tie-2 levels of the tissue. Animals were sacrificed 4 days after the implantation. Values are mean±SEM. *p<0.05, statistical significance of inhibition. The total number of animals per group is given in brackets.
as §1, §2
Tie-2 is a receptor tyrosine kinase which is specifically expressed on endothelial cells. For Tie-2 level determination, Nunc (Naperville, Ill.) Maxisorp 96-well plates were coated over night at 4° C. with the capture antibody, anti-Tie-2 AB33 (UBI, Hauppauge, N.Y.), with a concentration of 2 μg/mL (100 μL/well). Wells were washed in TPBS (Tween 80 PBS) and blocked by incubating with 3% Top-Block (Juro, Lucerne, Switzerland) for 2 hours at room temperature. 300 μg of protein lysates were added and incubated for 2 hours, and the wells washed three times before addition of a goat anti-mouse Tie-2 antibody (R&D Systems, Minneapolis, Minn.; 0.5 μg/mL) and an alkaline phosphate conjugated anti-goat antibody (Sigma, St. Louis, Mo.; diluted 1:6,000) in TPBS+0.1%Top-Block for 1 hour at room temperature. Tie-2 antibody complexes were detected after incubation with p-nitrophenyl phosphate substrate (Sigma). The absorbance of the spectro-photometric reaction was determined with an ELISA reader at 405 nm. Recombinant human extracellular domain of Tie-2 fused to the constant regions of human IgG1 (sTie-2Fc) dissolved in RIPA buffer was used as standard in a concentration range from 0.1 to 300 ng/well
Four days after the subcutaneous implantation of the VEGF containing chambers, VEGF induced the formation of a thick layer of neovascularised tissue (called capsule) that grew around the implant. PBS containing chambers induced a much thinner layer of tissue with very few blood vessels around control chamber. Tissue formation can be quantified by measuring the weight and the angiogenic response can be quantified by measuring the Tie-2 levels of the capsule. An ELISA assay can quantitatively measure endothelial cells in tissue extracts to evaluate the vascularization of the tissue. […]

[6] = 50 mg/kg p.o. once a day, exp. 1, mean ± SEM
[7] = 50 mg/kg p.o. once a day, exp. 2, mean ± SEM
[8] = 50 mg/kg, chamber without growth factor
[9] = 12.5 mg/kg p.o. once a day, exp. 2, mean ± SEM
[10] = 25 mg/kg p.o. once a day, exp. 2, mean ± SEM

## Cc1nc(NC(=O)N2CCC[C@H]2C(N)=O)sc1-c1ccnc(C(C)(C)C(F)(F)F)c1 [Compound A, (S)-Pyrrolidine-1,2-dicarboxylic acid 2-amide 1-({4-methyl-5-[2-(2,2,2-trifluoro-1,1-dimethyl-ethyl)-pyridin-4-yl]-thiazol-2-yl}-amide)]
[1]; [6]
  % inhibition Base line (no GF stimulation), Capsule weight: 14 ± 11 (2) %
[1]; [7]
  % inhibition Base line (no GF stimulation), Capsule weight: 12 ± 10 (3) %
  % inhibition Base line (no GF stimulation), Total Tie-2: 29 ± 9 * (3) %
[1]; [8]
  Tie-2 levels, basal induced angiogenesis: significantly reduced
  tissue weight, basal induced angiogenesis: did not affect tissue weight
[2]
  abrogation of VEGF-induced Evans blue dye extravasation: up to 90%
BN472 tumors [3]; 12.5 mg/kg
  IFP pattern over three days of treatment compared with 25 mg/kg: very similar pattern
  time post last treatment at which IFP returned to initial values: ≤ 60 h
BN472 tumors [3]; 25 mg/kg
  time post last treatment without normalization of IFP diminution: > 72 h
BN472 tumors [3]; 25 mg/kg, 4 hours post treatment
  reduction in IFP: clear and significant reduction
BN472 tumors [3]; 25 mg/kg, 22 hours post dosage
  IFP change at max after first treatment: −25%
BN472 tumors [3]; 25 mg/kg, second treatment at time point 24 hours
  IFP inhibition after second treatment: −36%
BN472 tumors [3]; 25 mg/kg, third treatment, sustained for 48 hours
  IFP inhibition after third treatment: −43%
BN472 tumors [4]; 20 mg/kg
  % change of body weight corrected: 1.2 ± 0.5%
  Mean fold change in tumor growth: 4.6 ± 0.8
  Survival (Survivors/total): 5/5
  Δ Body weight (mean g ± SEM): 4.0 ± 1.1 g
  Δ tumor volume (mean mm^3 ± SEM): 1725 ± 283 * mm^3
  T/C (%): 36% and 36 * %
BN472 tumors [4]; 40 mg/kg
  % change of body weight corrected: −1.8 ± 0.5%
  Mean fold change in tumor growth: 3.3 ± 0.2
  Survival (Survivors/total): 5/5
  Δ Body weight (mean g ± SEM): -2.5 ± 0.9 g
  Δ tumor volume (mean mm^3 ± SEM): 1108 ± 198 * mm^3
  T/C (%): 23% and 23 * %
[5]; 12.5 mg/kg p.o. once a day, exp. 1, mean ± SEM
  % inhibition VEGF-stimulated, Capsule weight: 64 ± 33 (3) %
[5]; [9]
  % inhibition VEGF-stimulated, Capsule weight: 74 ± 24 (4) %
  % inhibition VEGF-stimulated, Total Tie-2: 58 ± 22 (4) %
[5]; 25 mg/kg p.o. once a day, exp. 1, mean ± SEM
  % inhibition VEGF-stimulated, Capsule weight: 84 ± 5 * (3) %
[5]; [10]
  % inhibition VEGF-stimulated, Capsule weight: 106 ± 28 * (4) %
  % inhibition VEGF-stimulated, Total Tie-2: 113 ± 38 * (4) %
[5]; 50 mg/kg given daily
  Tie-2 levels of the capsule, VEGF chamber: returned to the baseline or even below
[5]; [6]
  % inhibition VEGF-stimulated, Capsule weight: 88 ± 12 * (4) %
[5]; [7]
  % inhibition VEGF-stimulated, Capsule weight: 121 ± 11 * (6) %
  % inhibition VEGF-stimulated, Total Tie-2: 145 ± 9 * (6) %
[5]; once a day at 12.5, 25 and 50 mg/kg in solution
  angiogenic response induced by VEGF (weight and Tie-2 level of the capsule): inhibited significantly
